For orientation: IC50 means the concentration that inhibits the measured activity by half.

The nature of data set [1]: Cytotoxicity against human HCT116 cells assessed as reduction in cell viability after 48 hrs by WST1 assay. The data set is classed as functional, cell-based. The conditions noted are these: HCT-116, 48 h. In general terms: Formazan colour is commonly taken as a measure of viable cells.
Data set [2] is described as follows: Cytotoxicity against human TIG1 cells assessed as reduction in cell viability after 48 hrs by WST1 assay. The data set is classed as toxicity, cell-based.
Data set [3] concerns the target T1, Leukotriene A-4 hydrolase (Homo sapiens, UniProt P09960).
T1 sequence (P09960 whole entry): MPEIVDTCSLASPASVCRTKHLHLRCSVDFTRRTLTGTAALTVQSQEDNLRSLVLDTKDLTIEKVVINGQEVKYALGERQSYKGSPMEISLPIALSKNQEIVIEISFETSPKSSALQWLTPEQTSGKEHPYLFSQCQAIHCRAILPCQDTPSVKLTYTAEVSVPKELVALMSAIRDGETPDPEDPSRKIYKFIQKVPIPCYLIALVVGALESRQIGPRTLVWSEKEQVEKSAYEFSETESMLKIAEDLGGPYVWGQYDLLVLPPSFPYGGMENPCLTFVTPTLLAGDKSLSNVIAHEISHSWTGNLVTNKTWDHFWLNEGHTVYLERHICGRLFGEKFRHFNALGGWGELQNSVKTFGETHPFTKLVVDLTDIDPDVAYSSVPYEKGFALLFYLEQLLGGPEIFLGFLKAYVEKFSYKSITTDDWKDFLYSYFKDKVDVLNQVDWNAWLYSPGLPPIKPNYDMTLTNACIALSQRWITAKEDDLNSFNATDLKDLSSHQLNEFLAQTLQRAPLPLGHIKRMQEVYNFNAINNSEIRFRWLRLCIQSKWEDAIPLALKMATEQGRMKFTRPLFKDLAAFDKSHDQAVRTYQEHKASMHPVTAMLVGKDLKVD
Description: Inhibition of recombinant C-terminal His-tagged human LTA4H epoxide hydrolase activity expressed in Escherichia coli assessed as reduction in LTB4 production using LTA4 as substrate preincubated for 20 mins followed by substrate addition measured after 30 mins by enzyme immunoassay.

A further data set has as its system HCT-116. Description: Selectivity index, ratio of IC50 for human TIG1 cells to IC50 for human HCT116 cells. In kind it is functional.
Data set [4] in a line: Cytotoxicity against human HF19 cells assessed as reduction in cell viability after 48 hrs by WST1 assay. In kind it is toxicity, cell-based.
The target in data set [5] is T1, Leukotriene A-4 hydrolase. The experiment in a line: Inhibition of recombinant C-terminal His-tagged human LTA4H aminopeptidase activity expressed in Escherichia coli using L-alanine-4-nitro-anilide hydrochloride as substrate preincubated for 20 mins followed by substrate addition.

As to `CCCCCC(O)CC(=O)CCc1ccc(O)c(OC)c1` (configuration not stated), the values for the IC50 in data set [1], in data set [3] and in data set [5] were 45.1 µM, 58.3 µM and 56.1 µM, respectively. The IC50 at 48 h in data set [2] was 75.2 µM; in data set [4], more than 100 µM. The “Ratio IC50” value in the data set on HCT-116 was determined as 1.67.

As to `CCCCCC(CC(=O)CCc1ccc(O)c(OC)c1)OC` (configuration not stated), the half-maximal inhibitory concentration (IC50) in data set [1], in data set [3] and in data set [5] was more than 100 µM in each case. Also, the half-inhibitory concentration (IC50) at 48 h in data set [2] and in data set [4] was more than 100 µM each time.

Regarding `CCCC(O)CC(=O)CCc1ccc(O)c(OC)c1` (configuration not stated), the IC50 in data set [1], in data set [3] and in data set [5] was more than 100 µM in each case. Further, the IC50 at 48 h in data set [2] and in data set [4] was more than 100 µM throughout.

With `CCCCCCCCCC(O)CC(=O)CCc1ccc(O)c(OC)c1` (configuration not stated), the results for the IC50 in data set [1], in data set [3] and in data set [5] were 33.4 µM, 15.2 µM and 21.6 µM, respectively. Moreover, the IC50 at 48 h in data set [2] and in data set [4] was more than 100 µM each time. Also, in the data set on HCT-116, the “Ratio IC50” value is 3.

Consider `CCCCCCCC(O)CC(=O)CCc1ccc(O)c(OC)c1` (configuration not stated), for which the half-inhibitory concentration (IC50) in data set [1], in data set [3] and in data set [5] was more than 100 µM each time. The IC50 at 48 h was 55.6 µM in data set [2] and 77.6 µM in data set [4]. The “Ratio IC50” value in the data set with HCT-116 was found to be 0.55.

Consider `Nc1nc(-c2ccc(Cc3ccccc3)cc2)cs1`, for which the IC50 in data set [1] was 30.5 µM; in data set [3] it was 12.4 µM; in data set [5], 7.61 µM. Moreover, the values for the IC50 at 48 h in data set [2] and in data set [4] were 84.3 µM and more than 100 µM, respectively. Besides, the “Ratio IC50” value with HCT-116 is on record as 2.76.

As for `CCCCC/C=C/CCC(O)CC(=O)CCc1ccc(O)c(OC)c1` (configuration not stated), the IC50 stood at 46 µM in data set [1], 67.1 µM in data set [3] and 45.6 µM in data set [5]. Also, the IC50 at 48 h in data set [2] is more than 100 µM; in data set [4], 97.5 µM. The “Ratio IC50” value with HCT-116 was 2.17.

`CCCCCC(O)CC(=O)CCc1cc(OC)c(O)c(-c2cc(CCC(=O)CC(O)CCCCC)cc(OC)c2O)c1` (configuration not stated): the IC50 is more than 100 µM in data set [1], 77.8 µM in data set [3] and more than 100 µM in data set [5]. Further, the IC50 at 48 h stood at 63.1 µM in data set [2] and 54.8 µM in data set [4]. Further, the “Ratio IC50” value with HCT-116 is on record as 0.63.

As to `COc1ccc(CCC(C)=O)cc1OC`, the IC50 in data set [1], in data set [3] and in data set [5] was more than 100 µM throughout. Also, the IC50 at 48 h in data set [2] and in data set [4] was more than 100 µM each time.

For the compound `CCCCC/C=C/C(=O)CCc1ccc(OC)c(OC)c1`, the IC50 in data set [1] stood at 1.54 µM; in data set [3], 11.3 µM; in data set [5] it was 4.92 µM. Moreover, the IC50 at 48 h in data set [2] was 80.6 µM; in data set [4] it was more than 100 µM. The “Ratio IC50” value in the data set on HCT-116 amounted to 52.3.

Consider `CCCCCC(O)CC(=O)CCc1ccc(OCC=C(C)C)c(OC)c1` (configuration not stated), for which the IC50 in data set [1] was 21.5 µM; in data set [3] it was 7.25 µM; in data set [5] it was 3.01 µM. Also, the IC50 at 48 h was 83.2 µM in data set [2] and more than 100 µM in data set [4]. Further, the “Ratio IC50” value in the data set on HCT-116 amounted to 3.87.

Turning to `CC(C)=CCCC(C)[C@H]1CC=C(C)C(O)[C@H]1O` (some centres not stated), the IC50 in data set [1], in data set [3] and in data set [5] was more than 100 µM each time. The IC50 at 48 h in data set [2] and in data set [4] was more than 100 µM throughout. Also, the “Ratio IC50” value in the data set on HCT-116 came to 1.

With `CCCCC/C=C/C(=O)CCc1ccc(OC(C)=O)c(OC)c1`, the IC50 in data set [1] amounted to 26.9 µM; in data set [3] it was 29.5 µM; in data set [5], 9.31 µM. Besides, the IC50 at 48 h in data set [2] and in data set [4] was more than 100 µM throughout. In addition, the “Ratio IC50” value in the data set on HCT-116 is given as 3.72.

Consider `CCCCCC(CC(=O)CCc1ccc(OC(C)=O)c(OC)c1)OC(C)=O` (configuration not stated), for which the figures for the IC50 in data set [1], in data set [3] and in data set [5] were 30.9 µM, 27.6 µM and 22.1 µM, respectively. Besides, the IC50 at 48 h in data set [2] and in data set [4] was more than 100 µM each time. For the same compound, the “Ratio IC50” value in the data set with HCT-116 turned out to be 3.23.

For the compound `CCCCCC(O)CC(=O)CCc1ccc(OC)c(OC)c1` (configuration not stated), the results for the half-inhibitory concentration (IC50) in data set [1], in data set [3] and in data set [5] were 76.5 µM, more than 100 µM and more than 100 µM, respectively. Further, the figures for the IC50 at 48 h in data set [2] and in data set [4] were 92.8 µM and 88.4 µM, respectively. In addition, the “Ratio IC50” value with HCT-116 worked out at 1.21.

As for `C=CCOc1ccc(CCC(=O)CC(O)CCCCC)cc1OC` (configuration not stated), the IC50 in data set [1] is more than 100 µM; in data set [3] it was 66.4 µM; in data set [5], 56.3 µM. The IC50 at 48 h in data set [2] is 64.6 µM; in data set [4], more than 100 µM. Moreover, the “Ratio IC50” value in the data set on HCT-116 is 0.65.

Turning to `CCCCCC(CC(=O)CCc1ccc(OC)c(OC)c1)OC` (configuration not stated), the IC50 in data set [1], in data set [3] and in data set [5] was more than 100 µM each time. In addition, the concentration for half-maximal inhibition (IC50) at 48 h in data set [2] and in data set [4] was more than 100 µM each time.

Consider `CCCCC/C=C/C(=O)CCc1ccc(O)c(OC)c1` [SHOGAOL], for which the figures for the IC50 in data set [1], in data set [3] and in data set [5] were 12.9 µM, 24.6 µM and 12.5 µM, respectively. For the same compound, the IC50 at 48 h in data set [2] and in data set [4] was more than 100 µM throughout. For the same compound, the “Ratio IC50” value in the data set on HCT-116 stood at 7.77.

Take `CC(C)C[C@H](NC(=O)[C@@H](O)[C@H](N)Cc1ccccc1)C(=O)O` [UBENIMEX]: the IC50 in data set [1] was determined as 42.5 µM. The IC50 at 48 h in data set [2] was found to be 77.8 µM; in data set [4], 89.5 µM.

For the origin of these results see ChEMBL document CHEMBL3875224, “Synthesis, docking, cytotoxicity, and LTA4H inhibitory activity of new gingerol derivatives as potential colorectal cancer therapy” (Bioorg Med Chem, 2017).
